Measurements taken from patent US20260028365A1 (BIOGEN MA INC., priority 2022, published 2026).
Where a name gives a salt, the structure may show the parent alone. Read-outs that look alike come from different tables or passages of the source.

Experiments:
JH2 domain of human Tyk2 = JH2 domain of human Tyk2 (Homo sapiens (Human), UniProt P29597); experiment: JH2 Biochemical Assay (TR-FRET probe displacement); format: binding
Tyk2 = Tyk2 (Homo sapiens (Human), UniProt P29597); experiment: pSTAT4 Cell Assay (MSD, NK92 cells); format: cell-based
Tyk2, sequence (P29597 whole entry, the tested form may be a part): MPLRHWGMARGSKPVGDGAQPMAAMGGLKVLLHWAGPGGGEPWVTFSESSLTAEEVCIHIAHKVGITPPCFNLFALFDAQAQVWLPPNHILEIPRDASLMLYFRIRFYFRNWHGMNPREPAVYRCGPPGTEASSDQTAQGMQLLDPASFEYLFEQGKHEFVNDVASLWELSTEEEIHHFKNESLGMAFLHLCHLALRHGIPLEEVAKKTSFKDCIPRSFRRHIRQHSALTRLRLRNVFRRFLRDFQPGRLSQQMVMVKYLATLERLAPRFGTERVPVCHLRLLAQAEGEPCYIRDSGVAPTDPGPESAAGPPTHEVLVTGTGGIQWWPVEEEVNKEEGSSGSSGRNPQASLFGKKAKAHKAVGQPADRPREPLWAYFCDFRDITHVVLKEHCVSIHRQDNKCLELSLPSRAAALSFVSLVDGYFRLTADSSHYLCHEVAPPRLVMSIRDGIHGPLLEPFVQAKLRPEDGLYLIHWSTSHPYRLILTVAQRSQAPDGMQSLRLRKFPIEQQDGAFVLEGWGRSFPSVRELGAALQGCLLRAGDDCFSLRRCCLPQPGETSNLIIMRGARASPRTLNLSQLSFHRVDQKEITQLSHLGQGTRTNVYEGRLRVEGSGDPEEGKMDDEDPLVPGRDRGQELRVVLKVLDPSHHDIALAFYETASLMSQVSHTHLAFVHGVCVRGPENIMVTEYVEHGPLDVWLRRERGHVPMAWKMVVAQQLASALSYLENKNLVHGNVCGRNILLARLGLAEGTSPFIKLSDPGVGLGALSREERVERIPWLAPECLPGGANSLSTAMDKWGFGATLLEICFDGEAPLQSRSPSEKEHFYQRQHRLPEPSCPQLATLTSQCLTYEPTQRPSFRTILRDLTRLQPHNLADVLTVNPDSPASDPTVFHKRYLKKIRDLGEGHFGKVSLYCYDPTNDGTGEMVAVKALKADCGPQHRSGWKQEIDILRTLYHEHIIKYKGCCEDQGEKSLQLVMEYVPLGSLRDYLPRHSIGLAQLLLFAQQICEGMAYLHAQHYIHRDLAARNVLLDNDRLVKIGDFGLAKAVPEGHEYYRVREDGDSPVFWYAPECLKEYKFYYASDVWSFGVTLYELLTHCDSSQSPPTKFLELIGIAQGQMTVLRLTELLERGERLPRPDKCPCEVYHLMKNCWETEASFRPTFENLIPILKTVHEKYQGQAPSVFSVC

[1] = TR-FRET probe displacement, JH2 domain of human Tyk2
[2] = TR-FRET probe displacement, JH2 domain
[3] = JH2 domain of human Tyk2, TR-FRET probe displacement

JH2 domain of human Tyk2, sequence (P29597 575-876): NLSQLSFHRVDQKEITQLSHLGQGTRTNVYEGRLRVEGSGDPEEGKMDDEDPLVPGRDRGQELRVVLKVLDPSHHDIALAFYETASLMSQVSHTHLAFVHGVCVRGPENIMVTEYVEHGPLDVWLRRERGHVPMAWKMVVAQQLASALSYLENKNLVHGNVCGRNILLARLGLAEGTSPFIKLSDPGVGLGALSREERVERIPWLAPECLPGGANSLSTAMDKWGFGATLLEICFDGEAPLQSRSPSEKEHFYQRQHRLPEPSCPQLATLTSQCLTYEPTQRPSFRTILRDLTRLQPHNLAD

Row | Structure (SMILES) | IC50 (JH2 domain of human Tyk2; [1]) [nM] | IC50 (Tyk2; MSD) [nM] | IC50 (JH2 domain of human Tyk2; [2]) [nM] | IC50 (Tyk2) [nM] | IC50 (JH2 domain of human Tyk2; [3]) [nM]
1 | CC(=O)Nc1cc(Nc2ccnc(C(C)(F)F)n2)c(-c2ccc3c(n2)OCC(C)(C)O3)cn1 [Example 144, N-(4-((2-(1,1-difluoroethyl)pyrimidin-4-yl)amino)-5-(2,2-dimethyl-2,3-dihydro-[1,4]dioxino[2,3-b]pyridin-6-yl)pyridin-2-yl)acetamide trifluoroacetate] | ≤ 10 | ≤ 10 | – | – | –
2 | COCc1cnc(-c2cnc(NC(C)=O)cc2Nc2cc(C)nc(C(C)(F)F)n2)s1 [Example 231, N-(4-((2-(1,1-difluoroethyl)-6-methylpyrimidin-4-yl)amino)-5-(5-(methoxymethyl)thiazol-2-yl)pyridin-2-yl)acetamide] | ≤ 10 | ≤ 10 | – | – | –
3 | COCCN(C)Cc1ccc(-c2cnc(NC(C)=O)cc2Nc2ccnc(C(C)(F)F)n2)nc1 [Example 879, N-(4′-((2-(1,1-difluoroethyl)pyrimidin-4-yl)amino)-5-(((2-methoxyethyl)(methyl)amino)methyl)-[2,3′-bipyridin]-6′-yl)acetamide] | – | – | ≤ 10 | ≤ 10 | –
4 | COc1cnc(NC(C)=O)cc1Nc1cc(C)nc(C23COC(C)(C2)C3)n1 [Example 449, N-(5-methoxy-4-((6-methyl-2-(1-methyl-2-oxabicyclo[2.1.1]hexan-4-yl)pyrimidin-4-yl)amino)pyridin-2-yl)acetamide] | – | ≥ 1000 | – | – | 100 to 1000
5 | COc1cnn(-c2cnc(NC(C)=O)cc2Nc2cc(C)nc(C(C)(F)F)n2)c1 [Example 731, N-(4-((2-(1,1-difluoroethyl)-6-methylpyrimidin-4-yl)amino)-5-(4-methoxy-1H-pyrazol-1-yl)pyridin-2-yl)acetamide] | – | 10 to 100 | – | – | ≤ 10
6 | CCOc1cnc(NC(C)=O)cc1Nc1cc(C)nc(C2CC2(C)C)n1 (racemic) [Example 518, rac-(R)-N-(4-((2-(2,2-dimethylcyclopropyl)-6-methylpyrimidin-4-yl)amino)-5-ethoxypyridin-2-yl)acetamide] | – | 100 to 1000 | – | – | ≤ 10
7 | COc1ccc(-c2cnc(NC(C)=O)cc2Nc2cc(OC3CC3)nc(C(C)(F)F)n2)nn1 [Example 833, N-(4-((6-cyclopropoxy-2-(1,1-difluoroethyl)pyrimidin-4-yl)amino)-5-(6-methoxypyridazin-3-yl)pyridin-2-yl)acetamide] | – | – | ≤ 10 | ≤ 10 | –
8 | CC(=O)Nc1cc(Nc2cc(-c3cnn(C(C)C)c3)nc(C(C)(F)F)n2)c(O[C@H]2C[C@@H](F)C2)cn1 [Example 414, N-(4-((2-(1,1-difluoroethyl)-6-(1-isopropyl-1H-pyrazol-4-yl)pyrimidin-4-yl)amino)-5-((1s,3s)-3-fluorocyclobutoxy)pyridin-2-yl)acetamide] | – | ≤ 10 | – | – | ≤ 10
9 | CC(=O)Nc1cc(Nc2cc(C)nc(C(C)(F)F)n2)c(OCc2ccon2)cn1 [Example 495, N-(4-((2-(1,1-difluoroethyl)-6-methylpyrimidin-4-yl)amino)-5-(isoxazol-3-ylmethoxy)pyridin-2-yl)acetamide] | – | 10 to 100 | – | – | ≤ 10
10 | CC(=O)Nc1cc(Nc2ccnc(C(C)(F)F)n2)c(-c2ncc(CN(C)C)s2)cn1 [Example 782, N-(4-((2-(1,1-difluoroethyl)pyrimidin-4-yl)amino)-5-(5-((dimethylamino)methyl)thiazol-2-yl)pyridin-2-yl)acetamide] | – | – | ≤ 10 | ≤ 10 | –
11 | CC(=O)Nc1cc(Nc2cc(C)nc(C34COC(C3)C4)n2)c(-c2ccc(C(F)F)cn2)cn1 [Example 572, N-(4′-((2-(2-oxabicyclo[2.1.1]hexan-4-yl)-6-methylpyrimidin-4-yl)amino)-5-(difluoromethyl)-[2,3′-bipyridin]-6′-yl)acetamide] | – | ≤ 10 | – | – | ≤ 10
12 | COc1cnn(-c2cnc(NC(C)=O)cc2Nc2ccnc(C(C)(F)F)n2)c1 [Example 730, N-(4-((2-(1,1-difluoroethyl)pyrimidin-4-yl)amino)-5-(4-methoxy-1H-pyrazol-1-yl)pyridin-2-yl)acetamide] | – | 100 to 1000 | – | – | 10 to 100
13 | CCc1cc(-c2cnc(NC(C)=O)cc2Nc2cc(C)nc(C(C)(F)F)n2)ncn1 [Example 244, N-(4-((2-(1,1-difluoroethyl)-6-methylpyrimidin-4-yl)amino)-5-(6-ethylpyrimidin-4-yl)pyridin-2-yl)acetamide] | ≤ 10 | 10 to 100 | – | – | –
14 | CCc1cc(Nc2cc(NC(C)=O)ncc2-c2ccc(F)cn2)nc(C(C)(F)F)n1 [Example 582, N-(4′-((2-(1,1-difluoroethyl)-6-ethylpyrimidin-4-yl)amino)-5-fluorO[2,3′-bipyridin]-6′-yl)acetamide] | – | ≤ 10 | – | – | ≤ 10
15 | CC(=O)Nc1cc(Nc2cc(C)nc(C(C)(F)F)n2)c(-c2ncns2)cn1 [Example 235, N-(4-((2-(1,1-difluoroethyl)-6-methylpyrimidin-4-yl)amino)-5-(1,2,4-thiadiazol-5-yl)pyridin-2-yl)acetamide] | ≤ 10 | ≤ 10 | – | – | –
16 | CC(=O)Nc1cc(Nc2cc(C)nc(C(C)(F)F)n2)c(-c2nc3n(n2)CCOC3)cn1 [Example 760, N-(4-((2-(1,1-difluoroethyl)-6-methylpyrimidin-4-yl)amino)-5-(5,6-dihydrO8H-[1,2,4]triazolo[5,1-c][1,4]oxazin-2-yl)pyridin-2-yl)acetamide] | – | – | ≤ 10 | 10 to 100 | –
17 | CC(=O)Nc1cc(Nc2ccnc(C(C)(C)F)n2)c(-c2cc(C)ncn2)cn1 [Example 198, N-(4-((2-(2-fluoropropan-2-yl)pyrimidin-4-yl)amino)-5-(6-methylpyrimidin-4-yl)pyridin-2-yl)acetamide] | ≤ 10 | 10 to 100 | – | – | –
18 | CC(=O)Nc1cc(Nc2cc(C)nc(C(C)(F)F)n2)c(-c2cnc(CN3CCCC3)cn2)cn1 [Example 791, N-(4-((2-(1,1-difluoroethyl)-6-methylpyrimidin-4-yl)amino)-5-(5-(pyrrolidin-1-ylmethyl)pyrazin-2-yl)pyridin-2-yl)acetamide] | – | – | ≤ 10 | ≤ 10 | –
19 | CC(=O)Nc1cc(Nc2cc(C)nc(C(C)(F)F)n2)c(OCC2CC(F)(F)C2)cn1 [Example 465, N-(5-((3,3-difluorocyclobutyl)methoxy)-4-((2-(1,1-difluoroethyl)-6-methylpyrimidin-4-yl)amino)pyridin-2-yl)acetamide] | – | 10 to 100 | – | – | ≤ 10
20 | CCc1cc(Nc2cc(NC(C)=O)ncc2-c2ccnc(COC)n2)nc(C(C)(F)F)n1 [Example 720, N-(4-((2-(1,1-difluoroethyl)-6-ethylpyrimidin-4-yl)amino)-5-(2-(methoxymethyl)pyrimidin-4-yl)pyridin-2-yl)acetamide] | – | ≤ 10 | – | – | ≤ 10
21 | CC(=O)Nc1cc(Nc2cc(C)nc(C(C)(F)F)n2)c(O[C@H]2C[C@@H](F)C2)cn1 [Example 412, N-(4-((2-(1,1-difluoroethyl)-6-methylpyrimidin-4-yl)amino)-5-((1s,3s)-3-fluorocyclobutoxy)pyridin-2-yl)acetamide] | – | 10 to 100 | – | – | ≤ 10
22 | CCc1cc(Nc2cc(NC(C)=O)ncc2-c2cn(CCOC)nn2)nc(C(C)(F)F)n1 [Example 262, N-(4-((2-(1,1-difluoroethyl)-6-ethylpyrimidin-4-yl)amino)-5-(1-(2-methoxyethyl)-1H-1,2,3-triazol-4-yl)pyridin-2-yl)acetamide] | ≤ 10 | ≤ 10 | – | – | –
23 | CC(=O)Nc1cc(Nc2cc(C)nc(C(C)(F)F)n2)c(OCC(F)C2CCC2)cn1 (stereo not drawn) [Example 420, N-(5-(2-cyclobutyl-2-fluoroethoxy)-4-((2-(1,1-difluoroethyl)-6-methylpyrimidin-4-yl)amino)pyridin-2-yl)acetamide] | – | 10 to 100 | – | – | ≤ 10
24 | COCCOc1cnc(NC(C)=O)cc1Nc1cccc(C2CCOC2)n1 (stereo not drawn) [Example 72, N-(5-(2-methoxyethoxy)-4-((6-(tetrahydrofuran-3-yl)pyridin-2-yl)amino)pyridin-2-yl)acetamide] | ≤ 10 | 100 to 1000 | – | – | –
25 | CC(=O)Nc1cc(Nc2cc(C)nc(C34CC(CO3)C4)n2)c(-c2ccn(C)n2)cn1 [Example 562, N-(4-((2-(2-oxabicyclo[2.1.1]hexan-1-yl)-6-methylpyrimidin-4-yl)amino)-5-(1-methyl-1H-pyrazol-3-yl)pyridin-2-yl)acetamide] | – | 10 to 100 | – | – | ≤ 10
26 | CCc1cc(Nc2cc(NC(C)=O)ncc2-c2cnc(CN3C[C@H]4C[C@@H](C3)O4)cn2)nc(C(C)(F)F)n1 [Example 900, N-(5-(5-(((1R,5S)-6-oxa-3-azabicyclo[3.1.1]heptan-3-yl)methyl)pyrazin-2-yl)-4-((2-(1,1-difluoroethyl)-6-ethylpyrimidin-4-yl)amino)pyridin-2-yl)acetamide] | – | – | ≤ 10 | ≤ 10 | –
27 | CCOc1cnc(NC(C)=O)cc1Nc1cc(-c2cnn(C(=O)OC(C)(C)C)c2)nc(C(C)(F)F)n1 [Example 307, tert-butyl 4-(6-((2-acetamido-5-ethoxypyridin-4-yl)amino)-2-(1,1-difluoroethyl)pyrimidin-4-yl)-1H-pyrazole-1-carboxylate] | ≤ 10 | 10 to 100 | – | – | –
28 | CC(=O)Nc1cc(Nc2cc(C)nc(C(C)(F)F)n2)c(-c2cnc(CN3CCN(C)CC3)cn2)cn1 [Example 792, N-(4-((2-(1,1-difluoroethyl)-6-methylpyrimidin-4-yl)amino)-5-(5-((4-methylpiperazin-1-yl)methyl)pyrazin-2-yl)pyridin-2-yl)acetamide] | – | – | ≤ 10 | 10 to 100 | –
29 | COc1cnc(NC(C)=O)cc1Nc1cc(-c2cncc(C)c2)nc(C(C)(F)F)n1 [Example 389, N-(4-((2-(1,1-difluoroethyl)-6-(5-methylpyridin-3-yl)pyrimidin-4-yl)amino)-5-methoxypyridin-2-yl)acetamide] | – | 10 to 100 | – | – | ≤ 10
30 | CCCn1ccc(-c2cnc(NC(C)=O)cc2Nc2ccnc(C(C)(F)F)n2)n1 [Example 705, N-(4-((2-(1,1-difluoroethyl)pyrimidin-4-yl)amino)-5-(1-propyl-1H-pyrazol-3-yl)pyridin-2-yl)acetamide] | – | ≤ 10 | – | – | ≤ 10
